# Assay: Pharmacokinetics in rats with ABT pretreatment (intestinal and hepatic availability)
# Details: for MRT last: MRT(0–t); for MRT last / concentration at 0.083 h / concentration at 8 h / concentration at 12 h / concentration at 24 h / concentration at 0.25 h / concentration at 0.5 h / concentration at 1 h / concentration at 2 h / concentration at 4 h / concentration at 6 h / AUC(0-inf) / E g (gut extraction) / E h (hepatic extraction) / F g / F h / F p.o. / reduction of systemic clearance: rats; for concentration at 0.083 h / concentration at 8 h / concentration at 12 h / concentration at 24 h / concentration at 0.25 h / concentration at 0.5 h / concentration at 1 h / concentration at 2 h / concentration at 4 h / concentration at 6 h: Plasma concentration
# [1] = rat, plasma, iv, 0.5 mg/kg, with ABT 50 mg/kg i.v., 1 h before dosing
# [2] = rat, plasma, po, 1 mg/kg, i.v. ABT, p.o. YL-IPA08 (1 mg/kg)
# [3] = rat, plasma, po, 1 mg/kg, p.o. ABT, p.o. YL-IPA08 (1 mg/kg)
# [4] = rat, plasma, po, 1 mg/kg, with ABT 50 mg/kg i.v., 1 h before dosing
# [5] = rat, plasma, po, 1 mg/kg, with ABT 100 mg/kg p.o., 15 h before dosing
smiles,measurement,setting,value
CCN(Cc1ccccn1)C(=O)Cc1c(-c2ccc(Cl)c(Cl)c2)nc2cc(C)ccn12 [YL-IPA08],MRT last,"rat, plasma, iv, 0.5 mg/kg, i.v. ABT, i.v. YL-IPA08 (0.5 mg/kg)",3.82 ± 0.32 h
same,Vd,[1],2.24 ± 0.28 L/kg
same,clearance,[1],17.8 ± 2.74 mL/min/kg
same,half-life,[1],1.46 ± 0.14 h
same,concentration at 0.083 h,"rat, plasma, oral, 1 mg/kg, i.v. 50 mg/kg ABT, p.o. 1mg/kg YL-IPA08, 0.083 h",9.32 ± 7.18 ng/mL
same,concentration at 8 h,"rat, plasma, oral, 1 mg/kg, i.v. 50 mg/kg ABT, p.o. 1mg/kg YL-IPA08, 8 h",4.51 ± 2.58 ng/mL
same,concentration at 12 h,"rat, plasma, oral, 1 mg/kg, i.v. 50 mg/kg ABT, p.o. 1mg/kg YL-IPA08, 12 h",3.98 ± 4.24 ng/mL
same,concentration at 24 h,"rat, plasma, oral, 1 mg/kg, i.v. 50 mg/kg ABT, p.o. 1mg/kg YL-IPA08, 24 h",1.28 ± 0.53 ng/mL
same,concentration at 0.083 h,"rat, plasma, oral, 1 mg/kg, p.o. 100 mg/kg ABT, p.o. 1 mg/kg YL-IPA08, 0.083 h",546 ± 637 ng/mL
same,concentration at 8 h,"rat, plasma, oral, 1 mg/kg, p.o. 100 mg/kg ABT, p.o. 1 mg/kg YL-IPA08, 8 h",34.2 ± 19.6 ng/mL
same,concentration at 12 h,"rat, plasma, oral, 1 mg/kg, p.o. 100 mg/kg ABT, p.o. 1 mg/kg YL-IPA08, 12 h",17.4 ± 8.5 ng/mL
same,concentration at 24 h,"rat, plasma, oral, 1 mg/kg, p.o. 100 mg/kg ABT, p.o. 1 mg/kg YL-IPA08, 24 h",1.39 ± 0.98 ng/mL
same,bioavailability,"rat, plasma, oral, 1 mg/kg, with ABT 50 mg/kg i.v., 1 h before dosing",19.7%
same,concentration at 0.25 h,"rat, plasma, oral, i.v. 50 mg/kg ABT, p.o. 1mg/kg YL-IPA08, 0.25 h",28.2 ± 25.2 ng/mL
same,concentration at 0.5 h,"rat, plasma, oral, i.v. 50 mg/kg ABT, p.o. 1mg/kg YL-IPA08, 0.5 h",30.3 ± 35.4 ng/mL
same,concentration at 1 h,"rat, plasma, oral, i.v. 50 mg/kg ABT, p.o. 1mg/kg YL-IPA08, 1 h",34.8 ± 50.4 ng/mL
same,concentration at 2 h,"rat, plasma, oral, i.v. 50 mg/kg ABT, p.o. 1mg/kg YL-IPA08, 2 h",30.5 ± 42 ng/mL
same,concentration at 4 h,"rat, plasma, oral, i.v. 50 mg/kg ABT, p.o. 1mg/kg YL-IPA08, 4 h",13.3 ± 17.1 ng/mL
same,concentration at 6 h,"rat, plasma, oral, i.v. 50 mg/kg ABT, p.o. 1mg/kg YL-IPA08, 6 h",6.4 ± 4.73 ng/mL
same,concentration at 0.25 h,"rat, plasma, oral, p.o. 100 mg/kg ABT, p.o. 1 mg/kg YL-IPA08, 0.25 h",403 ± 402 ng/mL
same,concentration at 0.5 h,"rat, plasma, oral, p.o. 100 mg/kg ABT, p.o. 1 mg/kg YL-IPA08, 0.5 h",370 ± 354 ng/mL
same,concentration at 1 h,"rat, plasma, oral, p.o. 100 mg/kg ABT, p.o. 1 mg/kg YL-IPA08, 1 h",334 ± 247 ng/mL
same,concentration at 2 h,"rat, plasma, oral, p.o. 100 mg/kg ABT, p.o. 1 mg/kg YL-IPA08, 2 h",246 ± 150 ng/mL
same,concentration at 4 h,"rat, plasma, oral, p.o. 100 mg/kg ABT, p.o. 1 mg/kg YL-IPA08, 4 h",125 ± 71.7 ng/mL
same,concentration at 6 h,"rat, plasma, oral, p.o. 100 mg/kg ABT, p.o. 1 mg/kg YL-IPA08, 6 h",47.7 ± 28.6 ng/mL
same,AUC(0-t),"rat, plasma, po, 1 mg/kg",185 ± 148 ng·h/mL
same,AUC(0-inf),[2],188 ± 146 ng·h/mL
same,AUC(0-inf),[3],876 ± 183 ng·h/mL
same,MRT last,[2],8.37 ± 3.67 h
same,MRT last,[3],5.51 ± 1.25 h
same,Cmax,[4],41.8 ± 42 ng/mL
same,Tmax,[4],0.87 ± 0.68 h
same,AUC(0-t),[5],868 ± 185 ng·h/mL
same,Cmax,[5],176 ± 88.5 ng/mL
same,Tmax,[5],1.4 ± 1.32 h
same,bioavailability,[5],69.7%
same,E g (gut extraction),ABT i.v.,75%
same,E h (hepatic extraction),ABT i.v.,20%
same,F g,ABT i.v.,25%
same,F h,ABT i.v.,80%
same,F p.o.,ABT i.v.,~20%
same,E g (gut extraction),ABT p.o.,16%
same,E h (hepatic extraction),ABT p.o.,17%
same,F g,ABT p.o.,84%
same,F h,ABT p.o.,83%
same,F p.o.,ABT p.o.,~70%
same,reduction of systemic clearance,ABT pretreatment through i.v. injection,about 75%
same,reduction of systemic clearance,ABT pretreatment through oral gavage,~80%
same,E g (gut extraction),No ABT,65%
same,E h (hepatic extraction),No ABT,83%
same,F g,No ABT,35%
same,F h,No ABT,17%
same,F p.o.,No ABT,6%
